Experimental data: paper PMC10633873 (ACS Omega, 2023)
Starred links: 1 amine or outer side, 2 acyl side, 3 side chain; linkers in the order of their positions; H or OH if unused. Positions of bridges follow the written chain, without caps; N, C: chain ends. Non-standard residues stand in square brackets, D forms with d. Residues, ends and D or L forms follow the SMILES beside them. Chains are numbered I, II in the order given. Actinocin(9to1) = Cc1c2oc3c(C)ccc(C(=O)[*:1])c3nc-2c(C(=O)[*:2])c(N)c1=O; NMeV = CN[C@H](C(=O)O)C(C)C; Sar = CNCC(=O)O

How the values were obtained:
HEV-RdRp = target: T1, HEV-RdRp (Hepatitis E virus genotype 1, UniProt P33424); test: HEV-RdRp enzyme activity; type: biochemical
T1 sequence (P33424 1207-1693 limits assumed): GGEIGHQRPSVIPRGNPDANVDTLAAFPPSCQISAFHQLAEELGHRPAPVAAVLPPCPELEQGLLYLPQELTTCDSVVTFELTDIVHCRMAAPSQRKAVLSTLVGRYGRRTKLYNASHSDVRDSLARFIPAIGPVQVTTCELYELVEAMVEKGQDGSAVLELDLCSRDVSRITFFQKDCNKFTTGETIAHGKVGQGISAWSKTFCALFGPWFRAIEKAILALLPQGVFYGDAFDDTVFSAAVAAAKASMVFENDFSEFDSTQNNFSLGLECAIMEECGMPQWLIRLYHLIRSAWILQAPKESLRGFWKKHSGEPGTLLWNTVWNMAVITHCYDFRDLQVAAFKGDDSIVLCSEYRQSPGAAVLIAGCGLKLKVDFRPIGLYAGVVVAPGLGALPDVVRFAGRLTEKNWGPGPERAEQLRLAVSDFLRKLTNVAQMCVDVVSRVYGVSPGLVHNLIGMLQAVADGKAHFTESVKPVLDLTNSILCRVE

[1] = Cell viability by MTT assay; type: cell-based; settings: human, Huh7 cells
HEV [2] = test: Immunofluorescence assay of ORF2 expression in HEV RNA-transfected Huh7 cells; type: cell-based, Hepatitis E virus; settings: Huh7, anti-HEV-ORF2, 4–5 days after transfection
HEV [3] = test: Effect on viral replication; type: cell-based, Hepatitis E virus; settings: concentration and assay not stated
HEV genotype 3 (pSHEV-3) = test: Viral RNA copy number by qPCR in Huh7 cells transfected with full-length HEV RNA; type: cell-based, Hepatitis E virus; settings: 5 days post transfection, vs untreated cells

Nc1nc2c(ncn2[C@@H]2O[C@H](COP(=O)(O)OP(=O)(O)OP(=O)(O)O)[C@@H](O)[C@H]2O)c(=O)[nH]1 [GTP]
Km (HEV-RdRp; GTP varied 0 to 8 mM, 5 μM enzyme, poly(C) 1 μg, Michaelis–Menten fit): 400 µM

Cc1c2oc3c(C)ccc(C(=O)N[C@@H]4C(=O)N[C@H](C(C)C)C(=O)N5CCC[C@H]5C(=O)N(C)CC(=O)N(C)[C@@H](C(C)C)C(=O)O[C@@H]4C)c3nc-2c(C(=O)N[C@@H]2C(=O)N[C@H](C(C)C)C(=O)N3CCC[C@H]3C(=O)N(C)CC(=O)N(C)[C@@H](C(C)C)C(=O)O[C@@H]2C)c(N)c1=O [actinomycin-D] (I: T[dV]P[Sar][NMeV] / II: T[dV]P[Sar][NMeV]; ester I:1-I:C, II:1-II:C; linker I:N-II:N via Actinocin(9to1))
effect on enzyme activity of RdRp (HEV-RdRp; 5 μM actinomycin-D added to the reaction mixture): no significant effect

NC(=O)c1nc(F)c[nH]c1=O [favipiravir]
CC50 at 72 h [1]: < 500 µM | effect on HEV replication (ORF2 mean fluorescence intensity) (HEV [2]): significantly inhibited HEV replication | IC50 (HEV-RdRp): 10.2 ± 4.9 µM | effect on polymerase activity of HEV-RdRp (HEV-RdRp): reduced the polymerase activity

CCc1cc(CC[C@]2(C3CCCC3)CC(O)=C(Cc3nc4nc(C)cc(C)n4n3)C(=O)O2)cc(CC)n1 [filibuvir]
effect on polymerase activity of HEV-RdRp (HEV-RdRp): reduced the polymerase activity

Nc1ccn([C@@H]2CS[C@H](CO)O2)c(=O)n1 [lamivudine]
effect on in vitro enzyme activity of HEV-RdRp (HEV-RdRp; concentration not given): inhibited | effect on viral replication (HEV [3]): did not show any effect

CCC(CC)COC(=O)[C@H](C)N[P@](=O)(OC[C@H]1O[C@@](C#N)(c2ccc3c(N)ncnn23)[C@H](O)[C@@H]1O)Oc1ccccc1 [remdesivir]
effect on polymerase activity of HEV-RdRp (HEV-RdRp): did not show any effect

NC(=O)c1ncn([C@@H]2O[C@H](CO)[C@@H](O)[C@H]2O)n1 [ribavirin]
CC50 at 72 h [1]: < 100 µM | % reduction of viral RNA (HEV genotype 3 (pSHEV-3); 100 μM): ∼72% | IC50 (HEV-RdRp): 3.5 ± 1.6 µM | effect on polymerase activity of HEV-RdRp (HEV-RdRp): reduced the polymerase activity

CC(C)OC(=O)[C@H](C)N[P@](=O)(OC[C@H]1O[C@@H](n2ccc(=O)[nH]c2=O)[C@](C)(F)[C@@H]1O)Oc1ccccc1 [sofosbuvir]
CC50 at 72 h [1]: < 125 µM | % reduction of viral RNA (HEV genotype 3 (pSHEV-3); 125 μM): ∼68% | IC50 (HEV-RdRp): 5.2 ± 2.9 µM | effect on polymerase activity of HEV-RdRp (HEV-RdRp): reduced the polymerase activity
